For orientation: EC50 means the concentration giving half of the maximal effect. The low end stands for a more potent agent, the high end for a less potent agent.

Results on one molecule are retold here after patent US8906904B2, “Alkoxy pyrazoles as soluble guanylate cyclase activators” (Boehringer Ingelheim International GmbH, priority 2012, dated 2014).

The structures appear in SMILES notation.

Data set [1] in a line: human liver microsome (HLM) metabolic stability assay. The data set is classed as in vitro ADME. Particulars: human liver microsomes; % hepatic blood flow calculated from t1/2. Put shortly:
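Compounds at 1 uM incubated with human liver microsomes plus NADPH at 37° C., sampled at 0, 5, 15, 30 and 60 min into cold acetonitrile and quantified by LC/MS/MS. t½ from the slope of ln % remaining vs time; CLint, CLh and % Qh derived from it (n=1).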

Data set [2] deals with T1, human soluble guanylate cyclase alpha 1 and beta 1 subunits (sGC) (Homo sapiens, UniProt Q02108+Q02153).
T1 construct: expressed in transfected cells; host or cells: Chinese hamster ovary (CHO) cells, stably transfected
T1 sequence (Q02108 1-690): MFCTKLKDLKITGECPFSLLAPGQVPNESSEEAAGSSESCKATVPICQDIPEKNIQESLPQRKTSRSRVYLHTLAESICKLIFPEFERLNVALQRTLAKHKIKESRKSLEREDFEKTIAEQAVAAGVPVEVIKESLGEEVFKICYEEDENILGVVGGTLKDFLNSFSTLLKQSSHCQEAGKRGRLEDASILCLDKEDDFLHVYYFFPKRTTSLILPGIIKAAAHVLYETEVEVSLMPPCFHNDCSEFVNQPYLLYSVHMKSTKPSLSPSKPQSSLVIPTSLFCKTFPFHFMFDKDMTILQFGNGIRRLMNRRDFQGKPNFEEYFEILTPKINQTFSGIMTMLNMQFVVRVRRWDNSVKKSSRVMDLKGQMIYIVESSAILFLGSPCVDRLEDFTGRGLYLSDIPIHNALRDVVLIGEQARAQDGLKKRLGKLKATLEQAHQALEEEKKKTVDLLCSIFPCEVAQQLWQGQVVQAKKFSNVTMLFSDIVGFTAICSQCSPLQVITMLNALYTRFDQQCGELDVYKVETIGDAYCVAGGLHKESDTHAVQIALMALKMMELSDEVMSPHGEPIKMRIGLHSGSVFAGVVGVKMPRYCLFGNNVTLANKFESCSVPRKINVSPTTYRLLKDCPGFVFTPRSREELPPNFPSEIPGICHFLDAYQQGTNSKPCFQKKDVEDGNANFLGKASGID
T1 sequence (Q02153 1-619): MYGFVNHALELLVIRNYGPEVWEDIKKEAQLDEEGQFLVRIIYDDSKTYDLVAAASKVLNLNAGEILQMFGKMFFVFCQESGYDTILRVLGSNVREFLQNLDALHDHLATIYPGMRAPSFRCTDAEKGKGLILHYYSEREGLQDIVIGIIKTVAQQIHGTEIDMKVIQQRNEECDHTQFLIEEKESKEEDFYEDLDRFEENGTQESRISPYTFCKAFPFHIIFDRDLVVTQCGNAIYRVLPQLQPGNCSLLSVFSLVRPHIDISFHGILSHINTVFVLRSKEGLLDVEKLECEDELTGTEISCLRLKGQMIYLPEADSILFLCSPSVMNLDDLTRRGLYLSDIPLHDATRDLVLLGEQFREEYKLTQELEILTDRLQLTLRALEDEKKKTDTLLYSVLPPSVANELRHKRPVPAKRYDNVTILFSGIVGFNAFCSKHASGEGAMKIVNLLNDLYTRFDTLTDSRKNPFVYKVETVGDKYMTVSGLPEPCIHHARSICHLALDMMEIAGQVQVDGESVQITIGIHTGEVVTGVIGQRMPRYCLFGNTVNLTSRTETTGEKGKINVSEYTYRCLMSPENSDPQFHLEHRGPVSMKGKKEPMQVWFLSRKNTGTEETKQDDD
Kind of data set: sGC cellular activator assay (cGMP, HTRF). The data set is classed as cell-based. Particulars: CHO cells stably expressing human sGC alpha 1/beta 1, preincubated with 40 microM ODQ; cGMP readout; assay run with and without 50% human serum, Table 2 does not say which. The essentials:
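First, CHO-sGC (human α1β1) cells get 1 h ODQ at 40 microM with IBMX and 0.1% BSA. Finally, cGMP is quantified by HTRF and EC50 computed.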
On the technique in general: In TR-FRET formats the signal depends on donor and acceptor labels being close together.

Turning to `CCOc1c(C(=O)O)cnn1-c1cccc(-c2cccc(C)c2OCc2ccc3c(c2)CCN(CC2CC(F)(F)C2)C3)n1` [Compound 96], the “HLM (% Qh)” value in data set [1] is given as 30 % Qh. Besides, the 50% effective concentration (EC50) in data set [2] was found to be 24 nM.
